In one test the test system is MAPK14 (Balb/c mice). As to the kind of experiment: LPS Induced TNF-alpha Production (Balb/c Mice). As to conditions: dose or concentration not given here.
The target of test [1] is MAPK14 (UniProt Q16539). As to the kind of experiment: MAPK14 Inhibition (PHAS-I).
Test [2] addresses MAPK14 (UniProt Q16539). As to the kind of experiment: MAPK14 inhibition (EGFRP).
Another test deals with MAPK14 (human) (UniProt Q16539). As to the kind of experiment: Antiproliferation Assay (U937 Cells).
MAPK14 (human), sequence (Q16539 whole entry, looked up): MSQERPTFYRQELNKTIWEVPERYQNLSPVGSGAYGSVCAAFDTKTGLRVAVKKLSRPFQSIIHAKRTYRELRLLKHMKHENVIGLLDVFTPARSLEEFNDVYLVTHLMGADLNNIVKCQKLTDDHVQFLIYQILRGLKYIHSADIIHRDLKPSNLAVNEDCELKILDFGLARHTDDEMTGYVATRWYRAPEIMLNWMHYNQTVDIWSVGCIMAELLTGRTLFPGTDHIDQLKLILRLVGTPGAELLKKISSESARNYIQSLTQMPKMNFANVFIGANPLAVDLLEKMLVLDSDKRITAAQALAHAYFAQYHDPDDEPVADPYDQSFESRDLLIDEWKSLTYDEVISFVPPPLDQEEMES

The structures appear in SMILES notation.

MAPK14, sequence (Q16539 whole entry, looked up): as above

With `CN1CCC(n2cc(-c3ccc(F)cc3)c(-c3ccncc3)n2)CC1.CN1CCC(n2ncc(-c3ccc(F)cc3)c2-c2ccncc2)CC1`, the inhibition (as a rule, the drop in the measured response relative to a control, in per cent) in the test on MAPK14 (Balb/c mice) turned out to be 32%. Moreover, the concentration for half-maximal inhibition (IC50) – broadly, the concentration that gives 50% inhibition – at MAPK14 [1] was 5900 nM; at MAPK14 [2], 0.75 µM.
Take `NS(=O)(=O)Nc1n[nH]c(-c2ccc(F)cc2)c1-c1ccncc1`: the 50% inhibitory concentration (IC50) on MAPK14 (human) came out at 10 µM.
With `CNC(=O)Nc1n[nH]c(-c2ccncc2)c1-c1ccc(F)cc1`, the half-maximal inhibitory concentration (IC50) against MAPK14 (human) was 10 µM.
Turning to `Fc1ccc(-c2cn(CCN3CCOCC3)nc2-c2ccncc2)cc1.Fc1ccc(-c2cnn(CCN3CCOCC3)c2-c2ccncc2)cc1`, the IC50 against MAPK14 (human) was 22 µM; on MAPK14 [1], 860 nM; at MAPK14 [2] it was over 10 µM.
For the compound `Cc1n[nH]c(-c2ccncc2)c1-c1ccccc1`, the IC50 at MAPK14 (human) is 10 µM.
On MAPK14 (human), `Cn1nc(-c2ccncc2)c(-c2ccc(Cl)cc2)c1N` came in with a 50% inhibitory concentration (IC50) of 10 µM.
For the compound `CN(C)CCn1cc(-c2ccc(F)cc2)c(-c2ccncc2)n1.CN(C)CCn1ncc(-c2ccc(F)cc2)c1-c1ccncc1`, the IC50 at MAPK14 (human) worked out at 5 µM; against MAPK14 [1], 941 nM; against MAPK14 [2], 10 µM.
On to `OCCn1cc(-c2ccc(F)cc2)c(-c2ccncc2)n1.OCCn1ncc(-c2ccc(F)cc2)c1-c1ccncc1`, for which the results for the IC50 at MAPK14 (human), at MAPK14 [1] and against MAPK14 [2] were 40 µM, 695 nM and 10 µM, respectively.

For the origin of these results see the Kinase Knowledgebase extract (Sharma et al. 2016).
